Series [1] is described as follows: Cytotoxicity against LPS-induced […] BV-2 cells assessed as cell viability at 20 uM measured after 24 hrs by MTT assay relative to control. The note with it: for viability at 24 h, 20 µM: LPS-induced BV-2 cells, read-out: Activity. Type of series: cell-based. A general note: Formazan colour is commonly taken as a measure of viable cells.
The nature of series [2]: Inhibition of LPS-induced nitric oxide production in […] BV-2 cells at 20 uM measured after 24 hrs by Griess reagent assay relative to control. Type of series: functional, Mus musculus. The note with it: for inhibition at 20 µM: BV-2, 24 h. (In general: The Griess reaction detects nitrite, a stable product of nitric oxide.)
Series [3] deals with BV-2. Nature of the series: Inhibition of LPS-induced nitric oxide production in […] BV-2 cells assessed as decrease in iNOS protein expression pretreated with LPS for 1 hr and measured after 18 hrs by immunoblot analysis. It is filed as functional, cell-based. The note with it: dose 2-20 µM, time 19.0 hrs. For orientation: Immunoblotting shows a protein as a band on a membrane.

Series [4] in a line: (§1) Inhibition of LPS-induced nitric oxide production in […] BV-2 cells measured after 24 hrs by Griess reagent assay. It is filed as functional, cell-based. The note with it: BV-2, 24 h.
The subject of series [5] is BV-2. The description is as §1. Type of series: functional, cell-based.
Series [6] concerns BV-2. Nature of the series: Inhibition of LPS-induced nitric oxide production in […] BV-2 cells assessed as decrease in iNOS mRNA expression pretreated with LPS for 1 hr and measured after 6 hrs by RT-PCR analysis. Type of series: functional, cell-based. The note with it: dose 2-20 µM, time 7.0 hrs.
The nature of series [7]: Cytotoxicity against LPS-induced […] BV-2 cells assessed as cell viability at 12.5 to 50 uM measured after 24 hrs by MTT assay. It is filed as cell-based. The note with it: bv-2, 24 h, dose 12.5-50 µM.
Series [8] is described as follows: Inhibition of LPS-induced nitric oxide production in […] BV-2 cells at 12.5 to 50 uM measured after 24 hrs by Griess reagent assay relative to control. Type of series: functional. The note with it: dose 12.5-50 µM.
A further series in a line: cells. The note with it: Homo sapiens, BV-2, 24 h, read-out: INH.

Here are results for 19 compounds from ChEMBL document CHEMBL4706652, “Synthesis of 4-(3-oxo-3-phenylpropyl)morpholin-4-ium chloride analogues and their inhibitory activities of nitric oxide production in lipopolysaccharide-induced BV2 cells” (Bioorg Med Chem Lett, 2021).

Each structure is given as a SMILES string. Counter-ions that a name gives are not always drawn.

Description for cells: Inhibition of LPS-induced nitric oxide production in human BV-2 cells at 10 uM measured after 24 hrs by Griess reagent assay relative to control

Take `O=C(CC(=O)N1CCOCC1)c1ccccc1`: the viability at 24 h, 20 µM in [1] worked out at 99.7%. Moreover, the inhibition at 20 µM in series [2] turned out to be 20.1%.

As to `O=C(CCN1CCOCC1)c1ccccc1C(F)(F)F`, the inhibition result with BV-2 [3], with BV-2 [5] and in the series on BV-2 [6] was “Dose-dependent effect” throughout. For the same compound, the viability at 24 h, 20 µM in series [1] stood at 100%. In addition, the 50% inhibitory concentration (IC50) (commonly the point on the concentration scale where inhibition reaches its midpoint) in series [4] was found to be 8.6 µM. For the same compound, the inhibition at 20 µM in series [2] came out at 78.3%.

Take `O=C(CCN1CCOCC1)c1ccc(C(F)(F)F)cc1`: the viability at 24 h, 20 µM in series [1] amounted to 96.1%. For the same compound, the inhibition at 20 µM in [2] was 50.3%.

Regarding `CN(C)c1ccc(C(=O)CCN2CCOCC2)cc1`, the viability at 24 h, 20 µM in series [1] worked out at 100%. The compound also displayed an inhibition at 20 µM in series [2] of 32.8%.

`O=C(CCN1CCOCC1)c1ccccc1`: the viability at 24 h, 20 µM in series [1] was 99.8%. Moreover, the inhibition at 20 µM in [2] was 31.8%.

Consider `Cl.O=C(CCN1CCOCC1)c1ccccc1`, for which the Activity result is given as “Non-Toxic” in [7] and 96.7% in [1] (bv-2, 24 h, 20 µM). Also, the entries for the “inhibition (INH)” value in series [8] and in series [2] were 49% and 29.3%, respectively. The same compound displayed an IC50 in series [4] of over 50 µM.

On to `O=C(CCN1CCOCC1)c1ccc(I)cc1`, for which the viability at 24 h, 20 µM in [1] is 89.4%. In series [2], this compound displayed an inhibition at 20 µM of 41.6%.

For the compound `O=C(CCN1CCOCC1)c1ccc([N+](=O)[O-])cc1`, the viability at 24 h, 20 µM in series [1] was determined as 98.3%. Besides, the inhibition at 20 µM in [2] stood at 73.1%.

For `Nc1ccc(C(=O)CCN2CCOCC2)cc1`, the viability at 24 h, 20 µM in series [1] is 100%. This compound gave an inhibition at 20 µM in [2] of 25.2%.

Turning to `O=C(CCN1CCOCC1)c1ccc(O)cc1`, in series [1], the viability at 24 h, 20 µM was determined as 99%. In addition, in series [2], the inhibition at 20 µM was determined as 26.5%.

Regarding `O=C(CCN1CCOCC1)c1ccc(F)cc1`, the viability at 24 h, 20 µM in [1] came out at 95%. In series [2], the inhibition at 20 µM came to 35.2%.

Take `O=C(CN1CCOCC1)C(=O)c1ccccc1`: in series [1], the viability at 24 h, 20 µM was 100%. The inhibition at 20 µM in [2] is 19.2%.

For `COc1ccc(C(=O)CCN2CCOCC2)cc1`, in series [1], the viability at 24 h, 20 µM turned out to be 100%. In series [2], this compound had an inhibition at 20 µM of 33.3%.

Take `O=C(CCN1CCOCC1)c1ccc(Cl)cc1`: the viability at 24 h, 20 µM in [1] stood at 100%. This compound yielded an inhibition at 20 µM in [2] of 40.3%.

For the compound `CNCCC(Oc1ccc(C(F)(F)F)cc1)c1ccccc1` (centres undefined) [FLUOXETINE HYDROCHLORIDE], the inhibition at 10 µM in “cells” was determined as 31.2%.

As for `O=C(CCN1CCOCC1)c1cccc(C(F)(F)F)c1`, in series [1], the viability at 24 h, 20 µM amounted to 100%. The compound also yielded an inhibition at 20 µM in series [2] of 44.6%.

On to `O=C(CCN1CCOCC1)c1ccc(Br)cc1`, for which the viability at 24 h, 20 µM in series [1] was 100%. The compound also yielded an inhibition at 20 µM in [2] of 41.6%.

Consider `O=C(Cc1ccccc1)CN1CCOCC1`, for which, in [1], the viability at 24 h, 20 µM worked out at 100%. The compound also gave an inhibition at 20 µM in [2] of 17.4%.

Turning to `Cc1ccc(C(=O)CCN2CCOCC2)cc1`, the viability at 24 h, 20 µM in series [1] is 100%. The same compound registered an inhibition at 20 µM in series [2] of 36%.
